# Laboratory results taken from patent US3946006A, “Tetrahydrothiadiazinethiones” (Sterling Drug Inc., priority 1974, dated 1976).
# Tests used:
# Experiment in all cases: minimal inhibiting concentration (MIC), filter disc agar plate test
# Format in all cases: cell-based
# [1] = system: Staphylococcus aureus; details: S. aureus; nutrient agar, 24 hours incubation
# Protocol: (§1) The bacteriological effectiveness of the compounds of the invention was determined with reference to minimal inhibiting concentrations, that is, the minimal concentration that will effect complete inhibition of germ growth (MIC). The test procedure is as follows:
# (§2) A 1% suspension, botained by homogenizing 500 mg. of the test agent in 50 ml. of 0.5% natrosol solution (natrosol 250 HRPS = hydroxymethylcellulose), is serially diluted with 0.5% natrosol solution to provide suspensions, in sterile test tubes, having concentrations of 0.1, 0.05, 0.01 and 0.005 percent. To ensure accuracy in dilution, the suspensions are mixed with the aid of a mechanical mixer. The dilutions (6 ml.) are added to sterile cups and immediately 10 filter discs (.phi. about 10 mm) are placed on the surface of the liquid in each cup. The filter discs, which slowly sink to the bottom on becoming saturated, are left in the solutions for one hour. 16-Hour old cultures of Escherichia coli, Staphylococcus aureus, Pyoceanus fluorescens and Proteus vulgaris are diluted at the ratio of 1:10 in glucose broth. 1-Week cultures of Penicillium glaucum, Aspergillus niger, Chaetomium globosum, Trichoderma viride, Humicola sp., Scopulariopsis brevicaulis, Pullularia pullulans, Sclerophoma pityophila, Saccharomyces cerevisiae and Candida albicans are harvested by rinsing and diluted 1:10 in nutrient broth.
# (§3) Standard II nutrient agar plates, with an addition of lactose and bromothymol blue (BROLAC agar) for bacteria, and Sabouraud agar plates for yeasts and fungi, are dried and labeled (10 Sabouraud agar plates and 4 nutrient agar plates were used per preparation). Of the diluted germ suspensions, 0.05 ml (1 drop) is inoculated onto each plate. Prior to further treatment, the plates are allowed to stand for one-half hour to absorb the germ suspension. Filter discs, corresponding to each of the five dilutions, are placed on the surface of each inoculated plate for each culture (step 1). The plates are examined for zones of inhibition after twenty-four hours incubation in the case of bacteria, and after three days incubation in the case of yeasts and fungi. Antimicrobial activity is indicated by occurance of a zone of inhibition. In the case of bacteria, the purity of the culture can be determined at the same time by lactose fermentation as indicated by color change in the nutrient medium. A visible inhibition ring is designated as negative growth an no inhibition ring as 3+ growth. […] A new dilution series then is prepared, with only one, or at most two, filter discs being placed on the surface of each plate for each culture. Activity is then determined as described above.
# (§4) The MIC values, expressed in percent concentration of the test agent, is presented in TAble 1 for compounds of the invention having formula I designated Example 1 (R--O--A = CH2 CH2 OCH3), Example 2 (R--O--A = CH2 CH2 OCH3) and Example 4(R--O--A = CH2 CH2 CH2 OCH2 CH3), and for two known compounds, designated A (3,5-dibenzyl-tetrahydro-2H-1,3,5-thiadiazine-2-thione) and B[3,5-bis(2-hydroxyethyl)-2H-1,3,5-thiadiazine-2-thione].
# [2] = system: Sclerophoma pityophila; details: S. pityophila; Sabouraud agar, three days incubation
# Protocol: as §1, §2, §3, §4
# [3] = system: Humicola sp.; details: Sabouraud agar, three days incubation
# Protocol: as §1, §2, §3, §4
# [4] = system: Pyoceanus fluorescens; details: P. fluorescens; nutrient agar, 24 hours incubation
# Protocol: as §1, §2, §3, §4
# [5] = system: Proteus vulgaris; details: P. vulgaris; nutrient agar, 24 hours incubation
# Protocol: as §1, §2, §3, §4
# [6] = system: Aspergillus niger; details: A. niger; Sabouraud agar, three days incubation
# Protocol: as §1, §2, §3, §4
# [7] = system: Saccharomyces cerevisiae; details: S. cerevisiae; Sabouraud agar, three days incubation
# Protocol: as §1, §2, §3, §4
# [8] = system: Escherichia coli; details: E. coli; nutrient agar, 24 hours incubation
# Protocol: as §1, §2, §3, §4
# [9] = system: Penicillium glaucum; details: P. glaucum; Sabouraud agar, three days incubation
# Protocol: as §1, §2, §3, §4
# [10] = system: Trichoderma viride; details: T. viride; Sabouraud agar, three days incubation
# Protocol: as §1, §2, §3, §4
# [11] = system: Candida albicans; details: C. albicans; Sabouraud agar, three days incubation
# Protocol: as §1, §2, §3, §4
# [12] = system: Scopulariopsis brevicaulis; details: S. brevicaulis; Sabouraud agar, three days incubation
# Protocol: as §1, §2, §3, §4
# [13] = system: Pullularia pullulans; details: P. pullulans; Sabouraud agar, three days incubation
# Protocol: as §1, §2, §3, §4
# [14] = system: Chaetomium globosum; details: C. globosum; Sabouraud agar, three days incubation
# Protocol: as §1, §2, §3, §4
MIC [1] [% conc.],MIC [2] [% conc.],MIC [4] [% conc.],MIC [5] [% conc.],MIC [6] [% conc.],MIC [7] [% conc.],MIC [8] [% conc.],MIC [9] [% conc.],MIC [11] [% conc.],MIC [13] [% conc.],SMILES,MIC [3] [% conc.],MIC [10] [% conc.],MIC [12] [% conc.],MIC [14] [% conc.]
0.05,0.005,0.1,0.1,0.03,0.05,0.1,0.005,0.05,0.005,"COCCCN1CSC(=S)N(CCCOC)C1 [Ex. 1, 3,5-Bis(3-methoxypropyl)-tetrahydro-2H-1,3,5-thiadiazine-2-thione]",0.01,0.03,0.005,0.005
0.07,< 0.005,0.1,0.1,0.1,0.01,0.1,0.05,0.05,0.05,"COCCN1CSC(=S)N(CCOC)C1 [Ex. 2, 3,5-Bis(2-methoxyethyl)-tetrahydro-2H-1,3,5-thiadiazine-2-thione]",< 0.005,0.1,< 0.005,0.01
0.05,< 0.003,0.1,0.05,< 0.003,< 0.003,0.1,< 0.003,0.01,< 0.003,"CCOCCCN1CSC(=S)N(CCCOCC)C1 [Ex. 4, 3,5-Bis(3-ethoxypropyl)-tetrahydro-2H-1,3,5-thiadiazine-2-thione]",,,,

# More lines, now with the values behind:
SMILES,MIC [1] [% conc.],MIC [2] [% conc.],MIC [4] [% conc.],MIC [5] [% conc.],MIC [6] [% conc.],MIC [7] [% conc.],MIC [8] [% conc.],MIC [9] [% conc.],MIC [11] [% conc.],MIC [13] [% conc.],MIC [3] [% conc.],MIC [10] [% conc.],MIC [12] [% conc.],MIC [14] [% conc.]
"S=C1SCN(Cc2ccccc2)CN1Cc1ccccc1 [A, 3,5-dibenzyl-tetrahydro-2H-1,3,5-thiadiazine-2-thione, reference compound]",1,> 1,1,1,> 1,> 1,1,> 1,> 1,> 1,> 1,> 1,> 1,> 1
"OCCN1CSC(=S)N(CCO)C1 [B, 3,5-bis(2-hydroxyethyl)-2H-1,3,5-thiadiazine-2-thione, reference compound]",0.05,0.01,0.1,1,1,0.1,1,1,1,0.01,0.1,1,0.1,1
